Assay results: the supplement of paper PMC10307832

Key:
Assay in all cases: relative viability (nuclei count vs DMSO), 5 days (fraction); higher = more cells survive
[1] = compound: CN1CCC(CC1)OC2=CC(=C(C=C2)NC3=NC=C4C(=N3)N(C(=O)N4C)C5CCCC5)OC [AZ3146] + CCNC(=O)c1noc(-c2cc(C(C)C)c(O)cc2O)c1-c1ccc(CN2CCOCC2)cc1 [Luminespib] (partner 0.01 µM)
In short: (§1)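 Lung cancer cell lines were pin-tool dosed in 1536-well plates on the day after seeding, with either a lone drug or a fixed anchor-drug dose plus five library-drug doses (not always all listed) in √10 steps. Nuclei were counted on 4× images after 5 days. Relative viability is the ratio of treated-well to vehicle-well nuclei counts, with each value a median of duplicate plates.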

[2] = compound: CCOC(=O)CCNc1cc(N2CCc3ccccc3CC2)nc(-c2ccccn2)n1 [GSK-J4] + CS(=O)(=O)CCNCc1ccc(-c2ccc3ncnc(Nc4ccc(OCc5cccc(F)c5)c(Cl)c4)c3c2)o1 [Lapatinib] (partner 2 µM)
In short: as §1

[3] = compound: CN1CCC(CC1)OC2=CC(=C(C=C2)NC3=NC=C4C(=N3)N(C(=O)N4C)C5CCCC5)OC [AZ3146] + CC(=O)c1c(C)c2cnc(Nc3ccc(N4CCNCC4)cn3)nc2n(C2CCCC2)c1=O [Palbociclib] (partner 0.5 µM)
In short: as §1

[4] = compound: CN1CCC(CC1)OC2=CC(=C(C=C2)NC3=NC=C4C(=N3)N(C(=O)N4C)C5CCCC5)OC [AZ3146] + N=C(N)NC(=N)NCCc1ccccc1 [Phenformin] (partner 250 µM)
In short: as §1

| Cell Line | relative viability ([1]; first compound 0.08 µM) | relative viability ([1]; first compound 0.253 µM) | relative viability ([1]; first compound 0.8 µM) | relative viability ([1]; first compound 2.53 µM) | relative viability ([1]; first compound 8 µM) | relative viability ([2]; first compound 0.5 µM) | relative viability ([2]; first compound 1.581 µM) | relative viability ([2]; first compound 5 µM) | relative viability ([2]; first compound 15.81 µM) | relative viability ([2]; first compound 50 µM) | relative viability ([3]; first compound 0.08 µM) | relative viability ([3]; first compound 0.253 µM) | relative viability ([3]; first compound 0.8 µM) | relative viability ([3]; first compound 2.53 µM) | relative viability ([3]; first compound 8 µM) | relative viability ([4]; first compound 0.08 µM) | relative viability ([4]; first compound 0.253 µM) | relative viability ([4]; first compound 0.8 µM) | relative viability ([4]; first compound 2.53 µM) | relative viability ([4]; first compound 8 µM) |
| --- | --- | --- | --- | --- | --- | --- | --- | --- | --- | --- | --- | --- | --- | --- | --- | --- | --- | --- | --- | --- |
| NCI-H322M | 0.88 | 0.847 | 0.715 | 0.924 | 0.787 | 0.533 | 0.623 | 0.842 | 0.514 | 0.528 | 0.475 | 0.465 | 0.461 | 0.518 | 0.471 | 0.82 | 0.811 | 0.715 | 0.833 | 0.585 |
| NCI-H460 | 0.0349 | 0.0347 | 0.0408 | 0.0305 | 0.0293 | 1.05 | 0.924 | 0.809 | 0.955 | 0.364 | 0.088 | 0.139 | 0.139 | 0.161 | 0.0649 | 0.49 | 0.493 | 0.466 | 0.515 | 0.0767 |
| NCI-H358 | 0.407 | 0.383 | 0.51 | 0.508 | 0.394 | 0.452 | 0.414 | 0.434 | 0.456 | 0.367 | 0.141 | 0.139 | 0.123 | 0.135 | 0.101 | 0.451 | 0.283 | 0.319 | 0.313 | 0.149 |
| NCI-H1395 | 0.72 | 0.691 | 0.634 | 0.772 | 0.719 | 1.22 | 0.955 | 0.759 | 0.883 | 0.648 | 0.619 | 0.603 |  | 0.619 | 0.647 | 0.394 | 0.45 | 0.379 | 0.423 | 0.445 |
| SK-MES-1 | 0.657 | 0.581 | 0.769 | 0.847 | 0.585 | 0.452 | 0.495 | 0.459 | 0.392 | 0.421 | 0.331 | 0.344 | 0.346 | 0.291 | 0.305 | 0.661 | 0.649 | 0.61 | 0.635 | 0.518 |
| PC-3 [JPC-3] | 0.617 | 0.741 | 0.676 | 0.695 | 0.715 | 0.47 | 0.385 | 0.578 | 0.43 | 0.427 | 0.505 |  | 0.47 | 0.555 | 0.482 | 0.465 | 0.476 | 0.517 | 0.521 | 0.461 |
| COR-L 105 | 0.776 | 0.8 | 0.815 | 0.824 | 0.678 | 0.398 | 0.317 | 0.35 | 0.319 | 0.35 | 0.408 | 0.365 | 0.377 | 0.346 | 0.372 | 0.548 | 0.451 | 0.505 | 0.388 | 0.294 |
| EKVX | 0.836 | 0.842 | 0.838 | 0.981 | 0.899 | 0.216 | 0.205 | 0.261 | 0.197 | 0.171 | 0.406 | 0.373 | 0.284 | 0.431 | 0.368 | 0.248 | 0.196 | 0.234 | 0.25 | 0.231 |
